Several values for one entry are separate records, joined by “and”; a condition that tells them apart may be missing. Identical values can stand only once.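 Dose response: 5 concentrations. Exposure: 48 h. Format: 96-well plates. Endpoint: linear interpolation; highest concentration if not reached. GI50 = concentration required for 50% inhibition of growth. TGI marks complete inhibition of growth.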
Tests used:
Assay in all cases: inhibition of tumour cell growth, NCI panel, 48 h
ACHN renal = test system: ACHN renal
DMS 273 small cell lung = test system: DMS 273 small cell lung
HCC-2998 colon = test system: HCC-2998 colon
HL-60(TB) leukemia = test system: HL-60(TB) leukemia
KM12 colon = test system: KM12 colon
KM20L2 colon = test system: KM20L2 colon
M19-MEL melanoma = test system: M19-MEL melanoma
SK-MEL-2 melanoma = test system: SK-MEL-2 melanoma
SK-OV-3 ovarian = test system: SK-OV-3 ovarian
SN12C renal = test system: SN12C renal
SNB-19 CNS = test system: SNB-19 CNS
LXFL 529 NSCLC = test system: LXFL 529 NSCLC

Row | SMILES | TGI (ACHN renal) | TGI (DMS 273 small cell lung) [µM] | TGI (HCC-2998 colon) | TGI (HL-60(TB) leukemia) | TGI (KM12 colon) | TGI (KM20L2 colon) [µM] | TGI (M19-MEL melanoma) [µM] | TGI (SK-MEL-2 melanoma) [µM] | TGI (SK-OV-3 ovarian) | TGI (SN12C renal) | TGI (SNB-19 CNS) | TGI (LXFL 529 NSCLC) [µM] | GI50 (ACHN renal) | GI50 (HCC-2998 colon) | GI50 (HL-60(TB) leukemia) | GI50 (KM12 colon) | GI50 (SK-OV-3 ovarian) | GI50 (SNB-19 CNS) | GI50 (SK-MEL-2 melanoma) [µM] | GI50 (SN12C renal)
1 | Fc1ccc(C2SCc3nc4ccccc4n32)c(F)c1 (stereo unspecified) | > 100 µM | > 100 | > 100 µM | 56.2 µM | > 100 µM | > 100 | > 100 | > 100 | > 100 µM | > 100 µM | > 100 µM | – | – | – | – | – | – | – | – | –
2 | Cc1c(/C=N/N=C/c2[nH]c(C(=O)OC(C)(C)C)c(C)c2C)[nH]c(C(=O)OC(C)(C)C)c1C | – | > 100 | > 100 µM | > 100 µM | > 100 µM | > 100 | > 100 | > 100 | > 100 µM | > 100 µM | > 100 µM | > 100 | – | – | – | – | – | – | – | –
3 | O=C(NC1CCCCC1)NS(=O)(=O)c1ccc2c(c1)CCC2 | > 100 µM | – | > 100 µM | > 100 µM | > 100 µM | – | > 100 | > 100 | > 100 µM | > 100 µM | > 100 µM | – | – | – | – | – | – | – | – | –
4 | COc1ccc(C=O)c([N+](=O)[O-])c1 | > 100 µM | 95.1 | – | 23.6 µM | > 100 µM | 45.2 | > 100 | > 100 | > 100 µM | > 100 µM | > 100 µM | – | – | – | – | – | – | – | – | –
5 | Cc1cccc(C)c1NC(=O)/C(=N/NC(N)=S)C(C)C(=O)c1ccc(Cl)cc1 (stereo unspecified) | > 100 µM | > 100 | > 100 µM | > 100 µM | > 100 µM | > 100 | > 100 | > 100 | > 100 µM | > 100 µM | > 100 µM | > 100 | – | – | – | – | – | – | – | –
6 | COC(=O)C1CC2CC(=NNC(N)=O)CC2C1 (stereo unspecified) | > 100 µM | > 100 | > 100 µM | > 100 µM | > 100 µM | – | > 100 | > 100 | > 100 µM | > 100 µM | > 100 µM | > 100 | – | – | – | – | – | – | – | –
7 | CC(=O)Nc1ccc(SC#N)c2c(NC(C)=O)cccc12 | > 100 µM | > 100 | > 100 µM | 71.5 µM | > 100 µM | > 100 | > 100 | > 100 | > 100 µM | > 100 µM | > 100 µM | > 73 | – | – | – | – | – | – | – | –
8 | Cc1ccc2c(C3Cc4ccccc4N3C(=O)/C=C\C(=O)O)c(C)[nH]c2c1 (stereo unspecified) | > 100 µM | > 100 | > 100 µM | 43.8 µM | > 100 µM | > 100 | > 100 | 36 | > 100 µM | > 100 µM | > 100 µM | 42.9 | – | – | – | – | – | – | – | –
9 | COc1ccc(-c2cc(Cc3cccs3)c(=O)[nH]n2)cc1 | > 100 µM | > 100 | > 100 µM | – | > 100 µM | > 100 | > 100 | > 100 | > 100 µM | > 100 µM | > 100 µM | > 100 | – | – | – | – | – | – | – | –
10 | NC(=O)c1csc(C2OC(CO)C(O)C2O)n1 (stereo unspecified) | > 10000 µM | 9960 | > 10000 µM | 3330 µM | 6070 µM | > 9200 | > 5520 | 6440 | > 5120 µM | > 8480 µM | 7290 µM | – | 54.5 µM | 75.8 µM | 36.5 µM | 70.8 µM | 79.9 µM | 65.7 µM | – | –
11 | COC(=O)C1(C)CCc2c(OC)ccc(OC)c2C1=O (stereo unspecified) | > 100 µM | > 100 | > 100 µM | > 100 µM | > 100 µM | – | > 100 | > 100 | > 100 µM | > 100 µM | > 100 µM | > 100 | – | – | – | – | – | – | – | –
12 | CCOC(=O)C1C(=S)NC(=O)C1C#N (stereo unspecified) | > 100 µM | > 100 | > 100 µM | > 100 µM | > 100 µM | > 100 | > 100 | > 100 | > 100 µM | > 100 µM | > 100 µM | > 100 | – | – | – | – | – | – | – | –
13 | CCC(=O)C12OC3OC(C)(C)OC3C1OC(C)(C)O2 (stereo unspecified) | > 100 µM | > 100 | > 100 µM | > 100 µM | > 100 µM | – | > 100 | > 100 | > 100 µM | > 100 µM | > 100 µM | – | – | – | – | – | – | – | – | –
14 | CCN(CC)CC1c2ccccc2C(CNc2ccccc2)N1C (stereo unspecified) | > 100 µM | > 100 | > 100 µM | > 100 µM | > 100 µM | > 100 | > 100 | > 100 | > 100 µM | > 100 µM | > 100 µM | > 100 | – | – | – | – | – | – | – | –
15 | Cc1ccc(-c2nnc(-c3nn(-c4ccccc4)c4nc5ccccc5nc34)o2)cc1 | 35.2 µM | 65.1 | – | > 100 µM | > 100 µM | > 100 | > 100 | 39 | 24.4 µM | > 100 µM | 76 µM | 35.7 | – | – | – | – | – | – | – | –
16 | COc1cc2c(c(OC)c1OC)-c1ccc(SC)c(=O)cc1C(NC(=O)c1ccccc1)CC2 (stereo unspecified) | > 63.1 µM | > 40.6 | 0.144 µM | < 0.0127 µM | 0.0357 µM | < 0.01 | > 100 | < 0.215 | 1.94 µM | 52.6 µM | 29.1 µM | > 76.5 | – | – | – | – | – | – | – | –
17 | N#CC(C#N)=C1NC(=O)CC(=O)N1 | – | > 100 | > 100 µM | > 100 µM | > 100 µM | > 100 | > 100 | – | > 100 µM | > 100 µM | > 100 µM | > 100 | – | – | – | – | – | – | – | –
18 | COc1cc(C(=O)C/C(CCC(=O)Nc2ccccc2[N+](=O)[O-])=N\NC(N)=O)ccc1O | > 100 µM | > 100 | > 100 µM | > 100 µM | > 100 µM | > 100 | > 100 | > 100 | > 100 µM | > 100 µM | > 100 µM | – | – | – | – | – | – | – | – | –
19 | C#C[C@]1(O)CCCC2=CC(=O)CC[C@@]21C | > 100 µM | > 100 | > 100 µM | > 100 µM | > 100 µM | > 100 | > 100 | > 100 | > 100 µM | > 100 µM | > 100 µM | > 100 | – | – | – | – | – | – | – | –
20 | CC#CCC1CCC(OCC)=CC1=O (stereo unspecified) | > 100 µM | > 100 | – | > 100 µM | > 100 µM | > 100 | > 100 | > 100 | > 100 µM | > 100 µM | > 100 µM | > 100 | – | – | – | – | – | – | – | –
21 | CC/C=C\C/C=C\C/C=C\CCCCCCCC(=O)OCC(O)CO (stereo unspecified) | > 72.5 µM | > 100 | > 100 µM | > 46 µM | > 70.9 µM | > 100 | – | > 100 | > 100 µM | > 100 µM | > 100 µM | > 68.9 | – | – | – | – | – | – | – | –
22 | Nc1nc(OCc2ccccc2)c2[nH]cnc2n1 | 244 µM and 125 µM | 400 | 400 µM and 182 µM | 181 µM and 57.8 µM | 400 µM and 307 µM | 400 | 400 | 177 | 71.9 µM and 160 µM and 60 µM | 400 µM and 193 µM | 400 µM and 213 µM | 400 | 23.1 µM and 23.4 µM | 46.2 µM and 56 µM | 39.8 µM and 17.7 µM | 59.6 µM and 62 µM | 21.8 µM and 20.8 µM | 86.2 µM and 33 µM | 25.1 | 29.4 µM and 26.4 µM
23 | N#CC(=C1C=CC(=NO)C=C1)c1ccc(Cl)cc1 | 24.9 µM | > 100 | 33.1 µM | 9.6 µM | 3.98 µM | > 100 | 46.9 | 20.2 | 48.9 µM | 58.7 µM | > 100 µM | 18 | – | – | – | – | – | – | – | –
24 | O=C1CC(c2c[nH]c3ccccc23)C(=O)N1 (stereo unspecified) | > 100 µM | > 100 | > 100 µM | > 100 µM | > 100 µM | > 100 | > 100 | > 100 | > 100 µM | – | – | > 100 | – | – | – | – | – | – | – | –

— PubChem BioAssay (NCI)
